This test concerns murine neural precursor cells (neurosphere cultures). The test is described as follows: HTS of LOPAC library against secondary neurosphere cultures, MTT proliferation assay at 3 μM, day 7 (z score, P value). The class given is cell-based, mouse.
Where [1] appears, read: LOPAC library screen, 3 μM, MTT, secondary neurosphere cultures, day 7.
The mark [2] stands for this setting: primary LOPAC screen, 3 μM, MTT, neurosphere proliferation.
Setting [3] is: yes/no: significantly inhibited neurosphere proliferation in the primary screen.
Where [4] appears, read: LOPAC library screen at 3 μM, secondary neurosphere cultures, MTT.
Setting [5] is: LOPAC screen, neurosphere MTT proliferation, 3 μM, day 7.
[6] abbreviates: yes/no: significantly inhibited neurosphere proliferation (P<0.01) in primary screen.
Setting [7] is: LOPAC library screen, 3 μM, MTT, neurosphere cultures.
Where [8] appears, read: LOPAC primary screen, neurosphere MTT proliferation, 3 μM, day 7.
Where [9] appears, read: yes/no: significantly inhibited neurosphere proliferation (P<0.01) in the primary screen.
Where [10] appears, read: yes = significantly inhibited neurosphere proliferation (P<0.01) in the primary screen.
Where [11] appears, read: yes/no: significantly inhibited neurosphere proliferation in primary screen.

Counter-ions that a name gives are not always drawn. Like-named read-outs stand apart in the source and are kept apart here.

Consider `COc1cc(Cc2cnc(N)nc2N)cc(OC)c1OC` [Trimethoprim], for which the “Z Score” value under setting [1] is reported as −1.23. The Z score under setting [2] was −1.230. In addition, the Activity entry under setting [3] is “no”.
As for `N#C/C(=C\c1ccc(O)c(O)c1)C(=O)N1CCc2ccccc21` [Tyrphostin AG 528], the “Z Score” value under setting [4] was −0.1481. Under setting [2], this compound had a Z score of −0.148. For the same compound, under setting [3], the Activity entry was “no”.
As for `COc1cc2c(cc1OC)[C@@H](c1ccccc1)CN(C)CC2.O=C(O)/C=C\C(=O)O` [R(−)-SCH-12679 maleate], the “Z Score” value is listed as 1.6092. In addition, the Z score under setting [2] is listed as 1.609. Also, under setting [3], the Activity entry is “no”.
As for Dihydroergocristine methanesulfonate, the “Z Score” value is −0.773. Further, the Z score under setting [5] is −0.773. In addition, the Activity entry under setting [6] was “no”.
In the case of `Clc1ccc(N2CC3CCC(C2)N3)nn1` [DBO-83], the “Z Score” value is −1.279. This compound also showed a Z score under setting [5] of −1.279. Moreover, the Activity result under setting [6] is on record as “no”.
In the case of `C[N+](C)(C)CCOC(N)=O` [Carbachol], the “Z Score” value under setting [7] is on record as −0.03381. The compound further had a Z score under setting [5] of −0.034. For the same compound, the Activity result under setting [6] was “no”.
`NC(CCCP(=O)(O)O)C(=O)O` (stereo not drawn) [(B1)-2-Amino-5-phosphonopentanoic acid]: the “Z Score” value was −1.045.
In the case of `O=C(O)CN(CCOCCOCCN(CC(=O)O)CC(=O)O)CC(=O)O`, the Activity result was “no”, the “Z Score” value is recorded as 1.507 and the Z score came out at 1.507.
With `CCCc1c(-c2ccc(O)cc2)nn(-c2ccc(O)cc2)c1-c1ccc(O)cc1` [1,3,5-tris(4-hydroxyphenyl)-4-propyl-1H-pyrazole], under “168 h, 3 µM”, the “Z Score” value worked out at 0.7717 and the Z score turned out to be 0.772. For the same compound, the Activity result under setting [6] was “no”.
As for `NC(N)=Nc1ccc2[nH]c3c(c2c1)C[C@@]1(O)[C@H]2Cc4ccc(O)c5c4[C@@]1(CCN2CC1CC1)[C@H]3O5.O=C(O)C(F)(F)F.O=C(O)C(F)(F)F`, the “Z Score” value was −0.2037. Moreover, the Z score under setting [8] was −0.204. Further, the Activity result under setting [6] is “no”.
Take `C=CCc1ccccc1OCC(O)CNC1(C)CCC(C(C)(C)NC(=O)CBr)CC1` (stereo not drawn) [Bromoacetyl alprenolol menthane]: the “Z Score” value is listed as 1.442. The compound also had a Z score under setting [5] of 1.442. The Activity result under setting [6] is recorded as “no”.
Regarding `CC(C)(C=O)Cc1cc(C(C)(C)C)c(O)c(C(C)(C)C)c1` [CGP-13501], the “Z Score” value is listed as −1.096. This compound displayed a Z score under setting [2] of −1.096. Under setting [3], the Activity result is on record as “no”.
Consider Ceramide, for which the “Z Score” value is on record as −0.8267. Under setting [2], this compound registered a Z score of −0.827. The Activity entry under setting [3] is listed as “no”.
Consider `CN(C)CCC(c1ccc(Br)cc1)c1ccccn1.O=C(O)/C=C\C(=O)O` (single isomer, unassigned; (+)) [(+)-Brompheniramine maleate], for which the “Z Score” value under setting [1] was −3.976. The Z score under setting [8] is −3.976. Further, under setting [9], the Activity result is “yes”.
As for `Cl.Cl.NCCCCN` [Putrescine dihydrochloride], the Activity entry is “no”, the “Z Score” value is −0.7689 and the Z score is on record as −0.769.
For `O=C1NC(c2cccc([N+](=O)[O-])c2)=CCN1c1ccccc1O` [Icilin], the “Z Score” value (LOPAC library screen at 3 μM, MTT, secondary neurosphere cultures, screened in singlets) came to 1.643. Under setting [5], this compound came in with a Z score of 1.643. In addition, the Activity result under setting [6] was “no”.
As for `COc1ccc2c(c[n+](C)c3c4cc5c(cc4ccc23)OCO5)c1OC` [Chelerythrine (36), Chelerythrine, reference compound], the “Z Score” value under setting [1] is reported as −10.67. The compound further showed a Z score under setting [8] of −10.671. Besides, the Activity entry under setting [9] was “yes”.
Consider `Cl.Nc1c2c(nc3ccccc13)CCCC2` [9-Amino-1,2,3,4-tetrahydroacridine hydrochloride], for which the Activity entry is “no”, the “Z Score” value was −1.021 and the Z score was −1.021.
Consider `CCCN1CCO[C@@H]2c3cc(O)ccc3OC[C@H]21.Cl` [(B1)-PD 128,907 hydrochloride], for which the “Z Score” value is 1.164.
On the same count and under the same terms, the figure for `NC1(C(=O)O)CCC(C(=O)O)C1` (stereo not drawn) [trans-(B1)-ACPD] is 0.3149.
Take `CN[C@H](CC(C)C)C(=O)N[C@H]1C(=O)N[C@@H](CC(N)=O)C(=O)N[C@H]2C(=O)N[C@H]3C(=O)N[C@H](C(=O)N[C@H](C(=O)O)c4cc(O)cc(O)c4-c4cc3ccc4O)[C@H](O)c3ccc(c(Cl)c3)Oc3cc2cc(c3O[C@@H]2O[C@H](CO)[C@@H](O)[C@H](O)[C@H]2O[C@H]2C[C@](C)(N)[C@H](O)[C@H](C)O2)Oc2ccc(cc2Cl)[C@H]1O.Cl`: the “Z Score” value under setting [7] is recorded as −0.06352. Also, the Z score under setting [2] is −0.064. Under setting [3], the Activity result is “no”.
As for `C/C(=C\c1ccc(C(=O)O)cc1)c1ccc2c(c1)C(C)(C)CCC2(C)C` [TTNPB], the “Z Score” value is listed as −2.158. Besides, under setting [2], the Z score was −2.158. Moreover, the Activity result under setting [3] was “no”.
Take CGP 20712A methanesulfonate: the “Z Score” value under setting [7] worked out at 0.6491. Under setting [5], this compound gave a Z score of 0.649. Also, the Activity result under setting [6] is “no”.
For `C=C[C@@]1(C)CC(=O)[C@]2(O)[C@@]3(C)[C@@H](O)CCC(C)(C)[C@@H]3[C@H](O)[C@H](OC(C)=O)[C@@]2(C)O1` [Forskolin], the “Z Score” value under setting [1] was −1.331. Under setting [8], this compound registered a Z score of −1.331.
For the compound `CC(C)(Sc1ccc(CCN(CCCCC2CCCCC2)C(=O)NC2CCCCC2)cc1)C(=O)O` [GW7647], the “Z Score” value is −0.9923. Under setting [8], this compound gave a Z score of −0.992. Also, the Activity result under setting [6] is reported as “no”.
Turning to `COc1ccc(CNC(=O)/C=C/c2ccc3[nH]cc(CCN(C)C)c3c2)cc1` [GR 4661], the “Z Score” value turned out to be 0.1015. In addition, the Z score under setting [8] is listed as 0.102. Under setting [10], the Activity entry was “no”.
Consider `NS(=O)(=O)c1cc2c(cc1Cl)N=CNS2(=O)=O` [Chlorothiazide], for which the “Z Score” value under setting [1] was −3.165. The same compound displayed a Z score under setting [8] of −3.165. For the same compound, the Activity result under setting [10] is on record as “yes”.
Consider `O=C(O)CCCCC1CCSS1` (stereo not drawn) [(B1)-alpha-Lipoic Acid], for which the “Z Score” value is given as 0.3418.
On to `CC(=O)NNC(=O)N1Cc2ccccc2Oc2ccc(Cl)cc21` [SC 19220], for which the “Z Score” value is recorded as −1.64. Under setting [8], this compound showed a Z score of −1.640. Besides, the Activity result under setting [11] is “no”.
Consider `CNC(=O)c1cc2c(cn1)[nH]c1ccccc12` [N-Methyl-beta-carboline-3-carboxamide], for which, where the note is “168 h, 3 µM”, the “Z Score” value is given as 0.6988 and the Z score was 0.699. Also, the Activity result under setting [6] is recorded as “no”.
For the compound `Cl.Cl.NCCc1c[nH]cn1` [Histamine dihydrochloride], the Activity result was “no”, the “Z Score” value was −1.476 and the Z score is reported as −1.476.
Turning to `Cn1cc(C(=O)OCC2CCN(CCNS(C)(=O)=O)CC2)c2ccccc21` [GR 113808], the “Z Score” value is recorded as 0.992. Also, under setting [8], the Z score is reported as 0.992. Besides, the Activity entry under setting [9] is recorded as “no”.
Consider `CCCN1CCC[C@@H](c2cccc(C#N)c2)C1.Cl` [S(−)-DS 121 hydrochloride], for which the “Z Score” value was −0.0998. Under setting [5], this compound yielded a Z score of −0.100. Under setting [6], the Activity entry is on record as “no”.
Take `C1COC(NC(C2CC2)C2CC2)=N1` [Rilmenidine hemifumarate]: the “Z Score” value under setting [7] came to 0.5264. Under setting [8], the Z score is listed as 0.526. Under setting [11], the Activity result was “no”.
For `O=c1[nH]cc(F)c(=O)[nH]1` [5-Fluorouracil], the “Z Score” value under setting [1] is −7.749. The Z score under setting [8] is given as −7.749. The Activity result under setting [10] is on record as “yes”.
Consider `C[N+](C)(C)CCC(=O)c1cccc2ccccc12.[I-]` [2-(alpha-Naphthoyl)ethyltrimethylammonium iodide], for which, under “168 h, 3 µM”, the “Z Score” value was −6.762 and the Z score is reported as −6.762. The Activity entry under setting [10] was “yes”.
With `COC(=O)C1=CCCN(C)C1` [Arecoline hydrobromide], the Activity result is recorded as “no”, the “Z Score” value is −0.111 and the Z score is on record as −0.111.
As for Piribedil maleate, the “Z Score” value under setting [4] was −0.3345. In addition, the Z score under setting [8] was −0.334. Besides, the Activity result under setting [9] is given as “no”.
As to `C[C@@H]1O[C@@H]1P(=O)([O-])[O-].[Na+].[Na+]` [Phosphomycin disodium], the “Z Score” value under setting [1] is reported as −1.402. Under setting [8], this compound registered a Z score of −1.402. The Activity result under setting [10] is given as “no”.
For the compound `C[C@@H]1O[C@H](C[N+](C)(C)C)C[C@H]1O.[Cl-]` [(B1)-Muscarine chloride], the “Z Score” value is recorded as −1.905.
Take `Br.Oc1cc2c(c(Cl)c1O)CCNCC2c1ccccc1` (racemic) [(±)-6-Chloro-PB hydrobromide]: the Z score under setting [8] is listed as −2.267. In addition, the Activity result under setting [11] is given as “no”.
Consider `OCc1cc(C(O)CNCCCCCCOCCCCc2ccccc2)ccc1O` (stereo not drawn) [Salmeterol], for which the Activity entry is given as “no”. Moreover, under setting [4], the “Z Score” value was −0.4896. The compound further displayed a Z score under setting [8] of −0.490.
As to `Br.CCCN(CCC)[C@@H]1CCc2cccc(O)c2C1` [R-(+)-8-Hydroxy-DPAT hydrobromide], under setting [4], the “Z Score” value is −0.6916. The same compound came in with a Z score under setting [8] of −0.692. For the same compound, the Activity result under setting [9] is “no”.
On to `COCCCC/C(=N\OCCN)c1ccc(C(F)(F)F)cc1` [Fluvoxamine maleate], for which the Activity result was “no”. In addition, the “Z Score” value under setting [7] was determined as 0.1323. The Z score under setting [8] was determined as 0.132.
`Br.Cc1cccc(C2CN(C)CCc3c2cc(O)c(O)c3Cl)c1` (stereo not drawn) [SKF 83959 hydrobromide]: the “Z Score” value is −1.357. The Z score under setting [8] is −1.357. Moreover, under setting [11], the Activity result is “no”.
